In patent publication US9708340B2, “Urea derivatives and their use as fatty-acid binding protein (FABP) inhibitors” (Hoffmann-La Roche Inc., priority 2013, dated 2017):

Experiments:
[1] = system: ApoE KO mice; conditions: cited from earlier work
[2] = system: ob/ob mice; conditions: cited from earlier work
[3] = system: mice under HF diet; conditions: cited from earlier work
[4] = target: human FABP5 (huFABP5) (Homo sapiens (Human), UniProt Q01469); test: Tb TR-FRET assay, binding of Bodipy labeled fatty acid to His6 tagged huFABP5; conditions: 50 nM FABP protein, […] Bodipy labeled fatty acid; read-out: IC50 h-fabp5-ecoli-r
[5] = target: human FABP4 (huFABP4) (Homo sapiens (Human), UniProt P15090); test: Tb TR-FRET assay, binding of Bodipy labeled fatty acid to His6 tagged huFABP4; conditions: 50 nM FABP protein, […] Bodipy labeled fatty acid; read-out: IC50 h-fabp4-ecoli-r
Sequence of human FABP4 (huFABP4) (P15090 whole entry): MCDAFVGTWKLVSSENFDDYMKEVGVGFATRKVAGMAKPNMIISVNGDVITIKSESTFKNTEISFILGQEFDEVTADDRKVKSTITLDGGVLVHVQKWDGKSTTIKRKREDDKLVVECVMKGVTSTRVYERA

Sequence of human FABP5 (huFABP5) (Q01469 whole entry): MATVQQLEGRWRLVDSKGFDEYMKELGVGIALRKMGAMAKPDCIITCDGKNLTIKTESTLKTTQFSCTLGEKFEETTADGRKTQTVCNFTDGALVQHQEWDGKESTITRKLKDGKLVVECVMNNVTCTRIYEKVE

CCc1c(-c2ccccc2)c(-c2ccccc2)nn1-c1ccccc1-c1cccc(OCC(=O)O)c1 [BMS309403]
atherosclerotic placques formation [1]: decrease | glucose uptake in muscle and adipose ([2]; clamp study in ob/ob mice): increased | hepatic glucose production ([2]; clamp study in ob/ob mice): reduction | body weight and energy consumption ([2]; ob/ob mice): no change | hepatic steatosis ([2]; ob/ob mice): reduction

O=C(O)[C@H]1CCCN1C(=O)Nc1ccccc1Oc1ccccc1 [Compound 3]
insulin and glucose tolerance [3]: no improvement | plasma triglyceride and free fatty acid [3]: reduction

O=C(O)[C@H]1CCCN1C(=O)Nc1cc(Cl)ccc1-c1ccc(Cl)cc1 [Example 59, (R)-1-(4,4′-dichlorobiphenyl-2-ylcarbamoyl)pyrrolidine-2-carboxylic acid]
IC50 [4]: > 50000 nM | IC50 [5]: 2080 nM

O=C(O)[C@H]1CCN1C(=O)Nc1cc(Cl)ccc1-c1cc(F)cc(F)c1 [Example 39, (R)-1-(4-chloro-3′,5′-difluorobiphenyl-2-ylcarbamoyl)azetidine-2-carboxylic acid]
IC50 [4]: > 50000 nM | IC50 [5]: 60 nM
